According to patent US20110251188A1, “ACENAPHTHO HETEROCYCLE COMPOUNDS, CYCLODEXTRIN INCLUSION COMPOUNDS AND COMPLEXES, AND USES IN THE MANUFACTURES OF BH3 PROTEIN ANALOGUE, BCL-2 FAMILY PROTEIN INHIBITORS THEREOF” (DALIAN UNIVERSITY OF TECHNOLOGY, priority 2008, published 2011):

Legend:
[1] = test system: hepatoma carcinoma cells H22; test: in vivo tumor model, subcutaneous H22 tumor in Kunming mice; conditions: experimental group 2: peritoneal injection of DMSO solution, 0.3 mg/kg BW every other day, 10 days; tumor volume on the fortieth day
Method: The Kunming mice (in China) were randomly divided into groups, with 10 mice in each group. The cultivated hepatoma carcinoma cells H22 were inoculated subcutaneously in the oxter of the mice with 200 μL/mouse. After bearing the cancer cells for five days, the subcutaneous tumor was formed. Then the compound 3-thiomorpholinyl-8-oxo-8H-acenaphtho[1,2-b]pyrrole-9-carbonitrile and γ-cyclodextrin inclusion compound thereof were given by peritoneal injection, and the compound to be detected included by γ-cyclodextrin was given by oral administration. The detection conditions comprise:
Blank control group: the mice were not treated in any manner after the bearing cancer;
Control group (1): the mice were given a peritoneal injection of DMSO solution every other day after the bearing cancer, 10 days in total;
Control group (2): the mice were given a peritoneal injection of cyclodextrin solution every other day after the bearing cancer, 10 days in total;
Experimental group (1): the mice were given a peritoneal injection of DMSO solution equivalent to 0.03 mg/kg BW compound every other day after the bearing cancer, 10 days in total;
Experimental group (2): the mice were given a peritoneal injection of DMSO solution equivalent to 0.3 mg/kg BW compound every other day after the bearing cancer, 10 days in total;
Experimental group (3): the mice were given a peritoneal injection of inclusion compound water solution equivalent to 0.3 mg/kg BW compound every other day after the bearing cancer, 10 days in total;
Experimental group (4): the mice were given an intragastric administration of inclusion compounds water solution equivalent to 0.3 mg/kg BW compound every other day after the bearing cancer, 10 days in total;
During the experimental period, the length-diameter (a) and short diameter (b), which was perpendicular to the length-diameter, of the tumor were detected twice every week. The gross tumor volume was determined according to the formula: ½ab^2. The survival time of the animal was observed. The tumor inhibition rate was calculated by the tumor volume on the fortieth day.

GST-Bcl-2 protein = target: T1, GST-Bcl-2 protein (Homo sapiens, UniProt P10415); test: fluorescence polarization assay, competitive binding against FAM-Bid peptide; conditions: Table 3; FAM-Bid competition; table does not say whether Bcl-2 or Mcl-1; read-out: Binding constant
T1 construct: fused on or other part: GST tag on Bcl-2
T1 sequence (P10415 whole entry, the tested form may be a part): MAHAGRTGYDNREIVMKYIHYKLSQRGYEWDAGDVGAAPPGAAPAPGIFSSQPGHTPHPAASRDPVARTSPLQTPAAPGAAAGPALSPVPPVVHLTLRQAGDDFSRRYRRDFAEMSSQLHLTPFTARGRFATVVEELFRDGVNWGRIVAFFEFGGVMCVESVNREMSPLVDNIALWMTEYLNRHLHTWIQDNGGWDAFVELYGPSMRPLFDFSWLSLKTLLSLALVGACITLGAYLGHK
Method: A Bid BH3 peptide (amino acids: 79-99: […]) having 21 amino acids was synthesized and marked with 6-carboxyfluorescein N-succinimidyl ester (FAM) as fluorescent tag (FAM-Bid) at the N-terminal. The reaction system used in the competitive binding experiment was GST-Bcl-2 protein (40 nM) or Mcl-1 protein, which was dissolved in the reaction buffer (100 mM K3PO4, pH 7.5; 100 μg/ml bovine γ albumin; 0.02% sodium azide) together with FAM-Bid polypeptide (5 nM). In a 96-well plate, 100 μL of the reaction system was added into each well. Then 1 μL different concentration of 3-thiomorpholinyl-8-oxo-8H-acenaphtho[1,2-b]pyrrole-9-carbonitrile mother solution to be detected dissolved in DMSO was added thereinto until the final concentration met the experimental design requirements. Meanwhile, two control groups were established, one with the reaction system only contains Bcl-2 or Mcl-1 and FAM-Bid (equivalent to 0% inhibition rate), the other with the reaction system only containing FAM-Bid peptide. After 4 hours of incubation, the 96-well plate was detected by enzyme-labelled meter. The fluorescent polarization value (mP) was tested at […]. Ki value was deduced according to calculation formula. The competitive binding constant between the compound and Bcl-2 was 310 nM.

Bcl-2 = test: Western blotting, inhibition (downregulation) of Bcl-2 in tumor cells, Example 23; type: cell-based; conditions: for inhibition against Bcl-2: Western blotting, tumor cells
Method: The interest protein was detected by the corresponding antibody. The expression of the interest protein in the cells was detected by horseradish peroxidase-labeled secondary antibodies in combination with ECL coloration method. […] The concentration of the protein bands in the Western images were carried out semiquantitative analysis and normalization treatment with KODAK Gel Logic 1500 imaging system software.

| Structure (SMILES) | tumor inhibition rate [1] | Ki (GST-Bcl-2 protein) [nM] | downregulation of Bcl-2 protein, semiquantitative analysis (band concentration, control = 1) (Bcl-2; 2 hours) | downregulation of Bcl-2 protein, semiquantitative analysis (band concentration, control = 1) (Bcl-2; 6 hours) | inhibition against Bcl-2 (Bcl-2) |
| --- | --- | --- | --- | --- | --- |
| N#CC1=C2C(=NC1=O)c1c(Sc3ccc(N)cc3)ccc3c(Sc4ccc(N)cc4)ccc2c13 [3,6-di(4-aminophenylthio)-8-oxo-8 H-acenaphtho[1,2-b]pyrrole-9-carbonitrile] | about 50% | 7 | 0.72 | 0.43 | had the inhibition against Bcl-2 and Mcl-1 proteins |
| N#CC1=C2C(=NC1=O)c1c(Sc3ccc(Br)cc3)ccc3c(Sc4ccc(Br)cc4)ccc2c13 [3,6-di(4-bromophenylthio)-8-oxo-8H-acenaphtho[1,2-b]pyrrole-9-carbonitrile] | about 78% | 5 | 0.68 | 0.49 | had the inhibition against Bcl-2 and Mcl-1 proteins |
| N#CC1=C2C(=NC1=O)c1cccc3c(Sc4ccc(Br)cc4)ccc2c13 [3-(4-bromophenylthio)-8-oxo-8H-acenaphtho[1,2-b]pyrrole-9-carbonitrile] | about 40% | 17 | 0.66 | 0.35 | had the inhibition against Bcl-2 and Mcl-1 proteins |
| N#CC1=C2C(=NC1=O)c1c(Sc3ccc(N)cc3)ccc3cccc2c13 [6-(4-aminophenylthio)-8-oxo-8H-acenaphtho[1,2-b]pyrrole-9-carbonitrile] | about 30% | 20 | 0.79 | 0.49 | had the inhibition against Bcl-2 and Mcl-1 proteins |
| N#CC1=C2C(=NC1=O)c1cccc3cccc2c13 [8-oxo-8H-acenaphtho[1,2-b]pyrrole-9-carbonitrile] | about 60% | 0.3 | 0.78 | 0.69 | had the inhibition against Bcl-2 and Mcl-1 proteins |
